Molecules are shown by their SMILES.

The results in this text go back to the supplement of paper PMC10307832.

The first assay has as its system NCI-H1793. The assay is described as follows: relative viability (nuclei count vs DMSO), 5 days (fraction); higher = more cells survive. The settings on record: first compound 2.53 µM. The gist of the method: (§1)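 Each reported value is a median over duplicate plates. It expresses relative viability: treated-well nuclei count divided by vehicle-well nuclei count. Lung cancer cell lines in 1536-well plates were dosed by pin tool a day after seeding, alone with one drug or with a fixed anchor-drug dose plus five library-drug doses (not always all listed) in √10 steps, and nuclei were counted after 5 days.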
Take `C=C1C(=O)O[C@@H](CCCCCCCC)[C@@H]1C(=O)O` [C-75] + CC(=O)c1c(C)c2cnc(Nc3ccc(N4CCNCC4)cn3)nc2n(C2CCCC2)c1=O [Palbociclib] (partner 0.5 µM): the relative viability was determined as 0.267.
With `C=C1C(=O)O[C@@H](CCCCCCCC)[C@@H]1C(=O)O` [C-75] + Nc1ncn([C@H]2C[C@H](O)[C@@H](CO)O2)c(=O)n1 [Decitabine] (partner 2 µM), the relative viability was 0.275.

The assay is the same for the next values; noted with them: first compound 8 µM.
In the case of `C=C1C(=O)O[C@@H](CCCCCCCC)[C@@H]1C(=O)O` [C-75] + CC(=O)c1c(C)c2cnc(Nc3ccc(N4CCNCC4)cn3)nc2n(C2CCCC2)c1=O [Palbociclib] (partner 0.5 µM), the relative viability is 0.306.
With `C=C1C(=O)O[C@@H](CCCCCCCC)[C@@H]1C(=O)O` [C-75] + Nc1ncn([C@H]2C[C@H](O)[C@@H](CO)O2)c(=O)n1 [Decitabine] (partner 2 µM), the relative viability was found to be 0.449.

The subject of a further assay is SW 1573. The description is as above. The settings on record: first compound 0.08 µM. The gist of the method:
as §1
On to `Oc1nc(-c2ccc(C(F)(F)F)cc2)nc2c1CSCC2` [XAV939] + O=C(CCCCCCC(=O)Nc1ccccc1)NO [Vorinostat] (partner 1 µM), for which the relative viability was 0.922.
For `Oc1nc(-c2ccc(C(F)(F)F)cc2)nc2c1CSCC2` [XAV939] + O=C(c1cc(Cc2n[nH]c(=O)c3ccccc23)ccc1F)N1CCN(C(=O)C2CC2)CC1 [Olaparib] (partner 8 µM), the relative viability came out at 0.437.
The same measure, in the same setting: with `Oc1nc(-c2ccc(C(F)(F)F)cc2)nc2c1CSCC2` [XAV939] + CC(=O)c1c(C)c2cnc(Nc3ccc(N4CCNCC4)cn3)nc2n(C2CCCC2)c1=O [Palbociclib] (partner 0.5 µM) the figure was 0.414; with `C=C1C(=O)O[C@@H](CCCCCCCC)[C@@H]1C(=O)O` [C-75] + CC(=O)c1c(C)c2cnc(Nc3ccc(N4CCNCC4)cn3)nc2n(C2CCCC2)c1=O [Palbociclib] (partner 0.5 µM), 0.357.
Regarding `C=C1C(=O)O[C@@H](CCCCCCCC)[C@@H]1C(=O)O` [C-75] + Nc1ncn([C@H]2C[C@H](O)[C@@H](CO)O2)c(=O)n1 [Decitabine] (partner 2 µM), the relative viability is 0.464.

The assay is the same for the next values; noted with them: first compound 0.253 µM.
Regarding `Oc1nc(-c2ccc(C(F)(F)F)cc2)nc2c1CSCC2` [XAV939] + O=C(CCCCCCC(=O)Nc1ccccc1)NO [Vorinostat] (partner 1 µM), the relative viability came to 0.8.
Same read-out and setting: with `Oc1nc(-c2ccc(C(F)(F)F)cc2)nc2c1CSCC2` [XAV939] + O=C(c1cc(Cc2n[nH]c(=O)c3ccccc23)ccc1F)N1CCN(C(=O)C2CC2)CC1 [Olaparib] (partner 8 µM) the figure was 0.499; with `Oc1nc(-c2ccc(C(F)(F)F)cc2)nc2c1CSCC2` [XAV939] + CC(=O)c1c(C)c2cnc(Nc3ccc(N4CCNCC4)cn3)nc2n(C2CCCC2)c1=O [Palbociclib] (partner 0.5 µM), 0.3; with `C=C1C(=O)O[C@@H](CCCCCCCC)[C@@H]1C(=O)O` [C-75] + CC(=O)c1c(C)c2cnc(Nc3ccc(N4CCNCC4)cn3)nc2n(C2CCCC2)c1=O [Palbociclib] (partner 0.5 µM), 0.394.
The molecule `C=C1C(=O)O[C@@H](CCCCCCCC)[C@@H]1C(=O)O` [C-75] + Nc1ncn([C@H]2C[C@H](O)[C@@H](CO)O2)c(=O)n1 [Decitabine] (partner 2 µM) had a relative viability of 0.51.

Staying with this assay, now noted: first compound 0.8 µM.
Consider `Oc1nc(-c2ccc(C(F)(F)F)cc2)nc2c1CSCC2` [XAV939] + O=C(CCCCCCC(=O)Nc1ccccc1)NO [Vorinostat] (partner 1 µM), for which the relative viability was 0.542.
The molecule `Oc1nc(-c2ccc(C(F)(F)F)cc2)nc2c1CSCC2` [XAV939] + O=C(c1cc(Cc2n[nH]c(=O)c3ccccc23)ccc1F)N1CCN(C(=O)C2CC2)CC1 [Olaparib] (partner 8 µM) showed a relative viability of 0.485.
The molecule `Oc1nc(-c2ccc(C(F)(F)F)cc2)nc2c1CSCC2` [XAV939] + CC(=O)c1c(C)c2cnc(Nc3ccc(N4CCNCC4)cn3)nc2n(C2CCCC2)c1=O [Palbociclib] (partner 0.5 µM) showed a relative viability of 0.326.
Regarding `C=C1C(=O)O[C@@H](CCCCCCCC)[C@@H]1C(=O)O` [C-75] + CC(=O)c1c(C)c2cnc(Nc3ccc(N4CCNCC4)cn3)nc2n(C2CCCC2)c1=O [Palbociclib] (partner 0.5 µM), the relative viability stood at 0.47.
In turn, `C=C1C(=O)O[C@@H](CCCCCCCC)[C@@H]1C(=O)O` [C-75] + Nc1ncn([C@H]2C[C@H](O)[C@@H](CO)O2)c(=O)n1 [Decitabine] (partner 2 µM) displayed a relative viability of 0.434.

Staying with this assay, now noted: first compound 2.53 µM.
Molecule `Oc1nc(-c2ccc(C(F)(F)F)cc2)nc2c1CSCC2` [XAV939] + O=C(CCCCCCC(=O)Nc1ccccc1)NO [Vorinostat] (partner 1 µM) showed a relative viability of 0.373.
In turn, `Oc1nc(-c2ccc(C(F)(F)F)cc2)nc2c1CSCC2` [XAV939] + O=C(c1cc(Cc2n[nH]c(=O)c3ccccc23)ccc1F)N1CCN(C(=O)C2CC2)CC1 [Olaparib] (partner 8 µM) displayed a relative viability of 0.379.
Consider `Oc1nc(-c2ccc(C(F)(F)F)cc2)nc2c1CSCC2` [XAV939] + CC(=O)c1c(C)c2cnc(Nc3ccc(N4CCNCC4)cn3)nc2n(C2CCCC2)c1=O [Palbociclib] (partner 0.5 µM), for which the relative viability stood at 0.279.
For `C=C1C(=O)O[C@@H](CCCCCCCC)[C@@H]1C(=O)O` [C-75] + CC(=O)c1c(C)c2cnc(Nc3ccc(N4CCNCC4)cn3)nc2n(C2CCCC2)c1=O [Palbociclib] (partner 0.5 µM), the relative viability came out at 0.423.
`C=C1C(=O)O[C@@H](CCCCCCCC)[C@@H]1C(=O)O` [C-75] + Nc1ncn([C@H]2C[C@H](O)[C@@H](CO)O2)c(=O)n1 [Decitabine] (partner 2 µM) came in with a relative viability of 0.385.

Staying with this assay, now noted: first compound 8 µM.
`C=C1C(=O)O[C@@H](CCCCCCCC)[C@@H]1C(=O)O` [C-75] + CC(=O)c1c(C)c2cnc(Nc3ccc(N4CCNCC4)cn3)nc2n(C2CCCC2)c1=O [Palbociclib] (partner 0.5 µM) came in with a relative viability of 0.351.
In turn, `C=C1C(=O)O[C@@H](CCCCCCCC)[C@@H]1C(=O)O` [C-75] + Nc1ncn([C@H]2C[C@H](O)[C@@H](CO)O2)c(=O)n1 [Decitabine] (partner 2 µM) had a relative viability of 0.351.

A further assay deals with NCI-H2023. The assay is described as above. The settings on record: first compound 0.08 µM. The gist of the method: as §1
In the case of `Oc1nc(-c2ccc(C(F)(F)F)cc2)nc2c1CSCC2` [XAV939] + O=C(CCCCCCC(=O)Nc1ccccc1)NO [Vorinostat] (partner 1 µM), the relative viability was 0.795.
Take `Oc1nc(-c2ccc(C(F)(F)F)cc2)nc2c1CSCC2` [XAV939] + O=C(c1cc(Cc2n[nH]c(=O)c3ccccc23)ccc1F)N1CCN(C(=O)C2CC2)CC1 [Olaparib] (partner 8 µM): the relative viability stood at 0.531.
On the same count and under the same terms, with `Oc1nc(-c2ccc(C(F)(F)F)cc2)nc2c1CSCC2` [XAV939] + CC(=O)c1c(C)c2cnc(Nc3ccc(N4CCNCC4)cn3)nc2n(C2CCCC2)c1=O [Palbociclib] (partner 0.5 µM) the figure was 0.405.
